Series [1] in a line: Cytotoxicity against African green monkey Vero E6 cells assessed as cell viability by CCK-8 assay. Type of series: toxicity, cell-based, Vero C1008. The settings on record: African green monkey (Chlorocebus sabaeus). (Formazan colour is commonly taken as a measure of viable cells.)
Series [2] in a line: AUC (0 to 24 hrs) in male ICR mouse at 2.5 mg/kg, iv measured upto 24 hrs by LC-MS/MS analysis. In kind it is ADME, organism-based. The settings on record: in vivo.
The nature of series [3]: AUC (0 to 24 hrs) in male ICR mouse at 10 mg/kg, po measured upto 24 hrs by LC-MS/MS analysis. Type of series: ADME, organism-based. The settings on record: in vivo.
A short description of series [4]: Cmax in male ICR mouse at 10 mg/kg, po measured upto 24 hrs by LC-MS/MS analysis. The settings on record: in vivo. In kind it is ADME, organism-based.
The nature of series [5]: Half life in male ICR mouse at 2.5 mg/kg, iv measured upto 24 hrs by LC-MS/MS analysis. Type of series: ADME, organism-based. The settings on record: in vivo.
Series [6] can be described thus: Half life in male ICR mouse at 10 mg/kg, po measured upto 24 hrs by LC-MS/MS analysis. In kind it is ADME, organism-based. The settings on record: in vivo.
Series [7] is described as follows: Tmax in male ICR mouse at 10 mg/kg, po measured upto 24 hrs by LC-MS/MS analysis. Type of series: ADME, organism-based. The settings on record: in vivo.
A short description of series [8]: Oral bioavailability in male ICR mouse at 10 mg/kg measured upto 24 hrs by LC-MS/MS analysis. In kind it is ADME, organism-based. The settings on record: in vivo.
Series [9] is described as follows: Toxicity in mouse assessed as animal death at 10 to 200 mg/kg administered for 10 days. The settings on record: in vivo, 240 h, dose 10-200 mg/kg, time 10 day. Type of series: organism-based.
Series [10] can be described thus: Toxicity in mouse assessed as body weight loss at 10 to 200 mg/kg administered for 10 days. The settings on record: in vivo, 240 h, dose 10-200 mg/kg, time 10 day. In kind it is organism-based.
The nature of series [11]: Inhibition of SARS CoV-2 envelope (2-E) channel. Also noted: species or system Severe acute respiratory syndrome coronavirus 2.
Series [12] relates to Severe acute respiratory syndrome coronavirus 2. Kind of series: Inhibition of SARS CoV-2 envelope (2-E) channel at 100 uM.

Active and inactive are the calls of the source.

Usually IC50 stands for the concentration that inhibits the measured activity by half. For the compound `COc1cc2c3cc1Oc1c(OC)c(OC)cc4c1[C@H](Cc1ccc(cc1)Oc1cc(ccc1C1CC1)C[C@H]3N(C)CC2)N(C)CC4`, the IC50 in series [1] is 10.9 µM.

Consider `COc1cc2c3cc1Oc1c(OC)c(OC)cc4c1[C@H](Cc1ccc(cc1)Oc1cc(ccc1C(=O)N1CCCCC1)C[C@H]3N(C)CC2)N(C)CC4`, for which the half-inhibitory concentration (IC50) in series [1] came out at 24.6 µM.

As for `COc1cc2c3cc1Oc1c(OC)c(OC)cc4c1[C@H](Cc1ccc(cc1)Oc1cc(ccc1C(=O)NC15CC6CC(CC(C6)C1)C5)C[C@H]3N(C)CC2)N(C)CC4`, the IC50 in series [1] stood at 4.9 µM.

Take `C=CC(=O)Nc1ccc2cc1Oc1ccc(cc1)C[C@H]1c3c(cc(OC)c(OC)c3Oc3cc4c(cc3OC)CCN(C)[C@@H]4C2)CCN1C`: in series [1], the IC50 stood at 31.1 µM.

In the case of `COc1cc2c3cc1Oc1c(OC)c(OC)cc4c1[C@H](Cc1ccc(cc1)Oc1cc(cc([N+](=O)[O-])c1)C[C@H]3N(C)CC2)N(C)CC4`, the IC50 in series [1] stood at 24.3 µM.

For `CNC(=O)c1ccc2cc1Oc1ccc(cc1)C[C@H]1c3c(cc(OC)c(OC)c3Oc3cc4c(cc3OC)CCN(C)[C@@H]4C2)CCN1C`, in series [1], the concentration for half-maximal inhibition (IC50) is 66.7 µM.

For `COc1cc2c3cc1Oc1c(OC)c(OC)cc4c1[C@H](Cc1ccc(cc1)Oc1cc(ccc1C(C)=O)C[C@H]3N(C)CC2)N(C)CC4`, the IC50 in series [1] worked out at 29.4 µM.

As to `CCCCCNC(=O)c1ccc2cc1Oc1ccc(cc1)C[C@H]1c3c(cc(OC)c(OC)c3Oc3cc4c(cc3OC)CCN(C)[C@@H]4C2)CCN1C`, the IC50 in [1] worked out at 22.5 µM.

Usually AUC(0-t) stands for exposure summed from dosing to a finite time, without extrapolation to infinity. For orientation: Cmax means the maximum level reached in the sampled fluid or tissue. The term half-life denotes the time needed for the level to fall by half in the phase considered. In general, Tmax refers to the time from dosing to the highest level. The bioavailability is the share of a dose that reaches the circulation, judged against a reference dose that is usually intravenous. In the case of `COc1cc2c3cc1Oc1c(OC)c(OC)cc4c1[C@H](Cc1ccc(cc1)Oc1cc(ccc1C(N)=O)C[C@H]3N(C)CC2)N(C)CC4`, the values for the IC50 in [1] and in [11] were 63.2 µM and 0.78 µM, respectively. Also, the exposure AUC(0-t) at 24 h in [2] was determined as 4120 ng·h/mL; in series [3], 12800 ng·h/mL. Further, in [4], the highest concentration (Cmax) came out at 854 ng/mL. Also, the half-life in series [5] was 17.1 h; in series [6], 12.5 h. Also, in series [7], the time of peak concentration (Tmax) was found to be 1.75 h. Besides, the bioavailability in series [8] was 77.4%. Besides, the Activity entry in series [9] and in series [10] was “Non-toxic” each time.

Regarding `COc1cc2c3cc1Oc1c(OC)c(OC)cc4c1[C@H](Cc1ccc(cc1)Oc1cc(ccc1C(=O)NC1CCCC1)C[C@H]3N(C)CC2)N(C)CC4`, the IC50 in series [1] was 22.5 µM.

`COc1ccc(NC(=O)c2ccc3cc2Oc2ccc(cc2)C[C@H]2c4c(cc(OC)c(OC)c4Oc4cc5c(cc4OC)CCN(C)[C@@H]5C3)CCN2C)cc1`: the half-inhibitory concentration (IC50) in series [1] was 10.6 µM.

`COc1cc2c3cc1Oc1c(OC)c(OC)cc4c1[C@H](Cc1ccc(cc1)Oc1cc(ccc1C(=O)NCCOCCO)C[C@H]3N(C)CC2)N(C)CC4`: the half-maximal inhibitory concentration (IC50) in series [1] stood at 123 µM.

On to `COc1cc2c3cc1Oc1c(OC)c(OC)cc4c1[C@H](Cc1ccc(cc1)Oc1cc(ccc1C(=O)Nc1ccc(C(F)(F)F)cc1)C[C@H]3N(C)CC2)N(C)CC4`, for which, in [1], the 50% inhibitory concentration (IC50) turned out to be 10.5 µM.

`COc1cc2c3cc1Oc1c(OC)c(OC)cc4c1[C@H](Cc1ccc(cc1)Oc1cc(ccc1C(=O)Nc1cccnc1)C[C@H]3N(C)CC2)N(C)CC4`: the IC50 in [1] stood at 26.4 µM.

For the compound `COc1cc2c3cc1Oc1c(OC)c(OC)cc4c1[C@H](Cc1ccc(cc1)Oc1cc(ccc1C)C[C@H]3N(C)CC2)N(C)CC4`, the IC50 in series [1] amounted to 10.3 µM.

For `C=C(C)c1ccc2cc1Oc1ccc(cc1)C[C@H]1c3c(cc(OC)c(OC)c3Oc3cc4c(cc3OC)CCN(C)[C@@H]4C2)CCN1C`, the concentration for half-maximal inhibition (IC50) in series [1] was determined as 6.13 µM.

For `COc1cc2c3cc1Oc1c(OC)c(OC)cc4c1[C@H](Cc1ccc(cc1)Oc1cc(ccc1C(=O)NC1CC1)C[C@H]3N(C)CC2)N(C)CC4`, the IC50 in series [1] amounted to 62.3 µM. The AUC(0-t) at 24 h in [2] is 1840 ng·h/mL; in [3] it was 5000 ng·h/mL. The compound also returned a Cmax in series [4] of 313 ng/mL. Further, the half-life in [5] is 21.1 h; in series [6] it was 16 h. Further, in series [7], the time of peak concentration (Tmax) was 1 h. The compound also showed a bioavailability in series [8] of 68.1%. For the same compound, in series [12], the inhibition result was “inactive”.

Regarding `COc1cc2c3cc1Oc1c(OC)c(OC)cc4c1[C@H](Cc1ccc(cc1)OC1C=C(Cc5[nH]c(=O)oc51)C[C@H]3N(C)CC2)N(C)CC4` (some centres undefined), the IC50 in [1] turned out to be 14.8 µM.

Turning to `COc1cc2c3cc1Oc1c(OC)c(OC)cc4c1[C@H](Cc1ccc(cc1)Oc1cc(ccc1C(=O)NC(C)C)C[C@H]3N(C)CC2)N(C)CC4`, the IC50 in [1] came out at 26.4 µM.

`COc1cc2c3cc1Oc1c(OC)c(OC)cc4c1[C@H](Cc1ccc(cc1)Oc1cc(ccc1O)C[C@H]3N(C)CC2)N(C)CC4` [AROMOLINE]: the IC50 in [1] turned out to be 29.9 µM. The AUC(0-t) at 24 h stood at 1300 ng·h/mL in series [2] and 1790 ng·h/mL in [3]. In series [4], this compound gave a Cmax of 260 ng/mL. The half-life is 13.2 h in [5] and 6.39 h in series [6]. For the same compound, the time to peak (Tmax) in series [7] stood at 0.33 h. For the same compound, the bioavailability in series [8] was 34.5%.

In the case of `COc1cc2c3cc1Oc1c(OC)c(OC)cc4c1[C@H](Cc1ccc(cc1)Oc1cc(ccc1C(=O)NC1CCC1)C[C@H]3N(C)CC2)N(C)CC4`, the IC50 in [1] was determined as 33.9 µM.

As for `COc1cc2c3cc1Oc1c(OC)c(OC)cc4c1[C@H](Cc1ccc(cc1)Oc1cc(ccc1C(=O)Nc1ccccc1)C[C@H]3N(C)CC2)N(C)CC4`, in series [1], the half-maximal inhibitory concentration (IC50) came to 6.88 µM.

On to `COc1cc2c3cc1Oc1c(OC)c(OC)cc4c1[C@H](Cc1ccc(cc1)Oc1cccc(c1)C[C@H]3N(C)CC2)N(C)CC4`, for which, in [1], the 50% inhibitory concentration (IC50) stood at 17.1 µM.

For `COC(=O)c1ccc2cc1Oc1ccc(cc1)C[C@H]1c3c(cc(OC)c(OC)c3Oc3cc4c(cc3OC)CCN(C)[C@@H]4C2)CCN1C`, in [1], the IC50 is 29.5 µM.

These data come from ChEMBL document CHEMBL6074634, “Design, synthesis, and evaluation of novel oxyacanthine derivatives for anti-SARS-CoV-2 activity” (Bioorg Med Chem Lett, 2024).
